In patent US10646492B2, “Heterocyclylamines as PI3K inhibitors” (Incyte Corporation, priority 2011, dated 2020):

Target: PI3Kδ (p110δ/p85α) (Homo sapiens (Human), UniProt O00329)
Test: PI3Kδ scintillation proximity assay (Example A3)
Assay type: biochemical
Conditions: 20 μM ATP, 4 nM PI3Kδ, read-out: PI3Kδ SPA IC50
Method: PI3Kδ (p110δ/p85α) was purchased from Millipore (Bedford, Mass.). ATP, MgCl2, DTT, EDTA, MOPS and CHAPS were purchased from SigmaAldrich (St. Louis, Mo.). Wheat Germ Agglutinin (WGA) YSi SPA Scintillation Beads was purchased from GE healthcare life sciences (Piscataway, N.J.). The kinase reaction was conducted in polystyrene 384-well matrix white plate from Thermo Fisher Scientific in a final volume of 25 μL. Inhibitors were first diluted serially in DMSO and added to the plate wells before the addition of other reaction components. The final concentration of DMSO in the assay was 0.5%. The PI3K assays were carried out at room temperature in 20 mM MOPS, pH 6.7, 10 mM MgCl2, 5 mM DTT and CHAPS 0.03%. Reactions were initiated by the addition of ATP, the final reaction mixture consisted of 20 μM PIP2, 20 μM ATP, 0.2 μCi [γ-^33P]ATP, 4 nM PI3Kδ. […] 25 mM EDTA, 400 μM ATP. The final concentration of SPA beads was 1.0 mg/mL. […] IC50 determination was performed by fitting the curve of percent control activity versus the log of the inhibitor concentration using the GraphPad Prism 3.0 software.

Chain of PI3Kδ (p110δ/p85α) (O00329 whole entry): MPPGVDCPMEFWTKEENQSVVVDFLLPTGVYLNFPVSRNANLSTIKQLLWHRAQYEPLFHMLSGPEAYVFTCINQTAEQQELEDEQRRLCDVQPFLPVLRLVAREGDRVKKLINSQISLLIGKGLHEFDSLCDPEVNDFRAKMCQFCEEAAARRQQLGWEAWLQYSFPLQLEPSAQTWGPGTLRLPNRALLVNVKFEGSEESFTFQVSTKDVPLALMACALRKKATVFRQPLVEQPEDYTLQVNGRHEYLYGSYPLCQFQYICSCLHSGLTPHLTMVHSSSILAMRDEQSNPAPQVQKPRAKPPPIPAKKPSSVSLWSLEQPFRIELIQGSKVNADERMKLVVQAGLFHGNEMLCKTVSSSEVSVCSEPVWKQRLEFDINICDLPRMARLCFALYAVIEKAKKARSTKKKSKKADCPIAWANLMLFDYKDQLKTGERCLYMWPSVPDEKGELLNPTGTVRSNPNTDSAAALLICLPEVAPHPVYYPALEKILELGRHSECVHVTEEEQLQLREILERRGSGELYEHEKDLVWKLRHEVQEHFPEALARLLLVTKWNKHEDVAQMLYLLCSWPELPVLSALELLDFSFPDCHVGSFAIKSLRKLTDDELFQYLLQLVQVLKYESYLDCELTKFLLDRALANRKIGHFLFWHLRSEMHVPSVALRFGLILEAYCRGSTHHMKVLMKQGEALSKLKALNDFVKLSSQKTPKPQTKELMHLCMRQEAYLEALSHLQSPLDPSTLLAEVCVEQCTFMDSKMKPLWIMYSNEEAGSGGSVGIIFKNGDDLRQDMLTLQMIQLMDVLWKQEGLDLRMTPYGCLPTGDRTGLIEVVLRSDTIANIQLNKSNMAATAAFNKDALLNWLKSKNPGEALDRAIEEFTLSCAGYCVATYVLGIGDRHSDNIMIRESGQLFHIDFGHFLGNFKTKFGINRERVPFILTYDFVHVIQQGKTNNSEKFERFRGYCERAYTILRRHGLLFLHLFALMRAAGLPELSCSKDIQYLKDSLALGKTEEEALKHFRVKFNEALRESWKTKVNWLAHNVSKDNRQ
Chain of PI3Kδ (p110δ/p85α) (P27986 whole entry partner): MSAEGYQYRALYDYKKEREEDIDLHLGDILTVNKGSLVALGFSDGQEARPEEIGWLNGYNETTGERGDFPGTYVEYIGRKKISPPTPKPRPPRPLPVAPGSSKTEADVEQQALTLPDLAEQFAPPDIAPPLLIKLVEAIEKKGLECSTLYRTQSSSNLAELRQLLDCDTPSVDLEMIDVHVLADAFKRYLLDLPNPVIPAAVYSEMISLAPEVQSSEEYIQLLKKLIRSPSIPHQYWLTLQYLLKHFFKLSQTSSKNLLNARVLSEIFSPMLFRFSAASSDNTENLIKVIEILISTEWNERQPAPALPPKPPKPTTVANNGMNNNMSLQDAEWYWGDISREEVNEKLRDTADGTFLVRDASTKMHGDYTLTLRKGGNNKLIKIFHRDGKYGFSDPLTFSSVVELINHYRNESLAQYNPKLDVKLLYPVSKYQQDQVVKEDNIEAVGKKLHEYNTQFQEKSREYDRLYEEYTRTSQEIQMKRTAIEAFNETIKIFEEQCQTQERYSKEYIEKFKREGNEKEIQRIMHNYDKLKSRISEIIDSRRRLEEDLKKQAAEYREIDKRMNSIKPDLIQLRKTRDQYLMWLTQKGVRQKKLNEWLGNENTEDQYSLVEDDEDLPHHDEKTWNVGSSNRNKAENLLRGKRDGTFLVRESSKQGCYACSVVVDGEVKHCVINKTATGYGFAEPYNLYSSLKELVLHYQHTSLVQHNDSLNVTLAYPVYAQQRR

- IC50: < 10 nM
SMILES: CCOc1c(C(C)n2nc(C)c3c(N)ncnc32)cc(Cl)c(C#N)c1-c1ccc(C(=O)NC)nc1 (stereo not shown) [Example 333, 5-{3-[1-(4-amino-3-methyl-1H-pyrazolo[3,4-d]pyrimidin-1-yl)ethyl]-5-chloro-6-cyano-2-ethoxyphenyl}-N-methylpyridine-2-carboxamide]
